Results taken from BindingDB's records for doi:10.1016/S0960-894X(00)80281-4 (1993).

Assay: Tested for inhibition against purified catalytic subunit of protein phosphatase-1 from rabbit skeletal muscle

Compound: C/C=C1/C(=O)N[C@@H](C(=O)O)[C@H](C)C(=O)N[C@@H](C(C)C)C(=O)N[C@@H](/C=C/C(C)=C/[C@H](C)[C@H](Cc2ccccc2)OC)[C@H](C)C(=O)N[C@@H](C(=O)O)CCC(=O)N1C [Motuporin]
- IC50: < 1 nM
